In ChEMBL document CHEMBL4052656, “The synthesis and evaluation of triazolopyrimidines as anti-tubercular agents” (Bioorg Med Chem, 2017) one finds Activity and selectivity ratio data, which are given here for four compounds.

Molecules are shown by their SMILES. The source made the active and inactive calls. The rule behind the calls is not given here.

Data set [1] has as its system Mycobacterium tuberculosis. Briefly: Bactericidal activity against replicating Mycobacterium tuberculosis H37Rv after 21 days by agar dilution method. The data set is classed as functional. For orientation: In agar dilution the substance is mixed into plates at graded concentrations.
Data set [2] concerns Mycobacterium tuberculosis. Nature of the data set: Bacteriostatic activity against replicating Mycobacterium tuberculosis H37Rv by agar dilution method. The data set is classed as functional.
The nature of data set [3]: Selectivity index, ratio of IC50 for human HepG2 cells to MIC90 for Mycobacterium tuberculosis H37Rv. The format is toxicity. Conditions: read-out: Selectivity Index.

Turning to `COc1ccc(CC(=O)Nc2cc(-c3ccccc3)nc3ncnn23)cc1`, the outcome in data set [1] was inactive. Besides, the result in data set [2] was Active.

`COc1ccc(CCNc2cc(-c3ccccn3)nc3ncnn23)cc1`: the outcome in data set [1] was inactive. For the same compound, in data set [2], the outcome was Active.

Consider `COc1ccc(CCNc2cc(-c3ccc(F)cc3)nc3ncnn23)cc1`, for which, in data set [3], the selectivity ratio was over 21.

As to `FC(F)(F)Oc1ccc(CCNc2cc(-c3ccccc3)nc3ncnn23)cc1`, the outcome in data set [1] was inactive. Further, in data set [2], the outcome was Active.
